In BindingDB's records for patent US20250032625 (Merck Patent, 2025):

Target: T1, Transcriptional enhancer factor TEF-1 [209-426] (UniProt P28347)
T1 construct: 209-426
Assay: Surface Plasmon Resonance (SPR) Assay
Description: The kinetic and affinity parameters of protein-exemplary compound interactions were evaluated by SPR. hsTEAD1 (209-426) was immobilized onto a CM7 (Series S) sensor chip via the standard amine coupling procedure, at 15° C. Prior to immobilization, the carboxymethylated surface of the chip was activated with 400 mM 1-ethyl-3-(3-dimethylaminopropyl)-carbodiimide and 100 mM N-hydroxysuccinimide for 10 min. hsTEAD1 (209-426) was diluted to 11 μg/mL in 10 mM Bis-Tris at pH 6.5 and immobilized on the activated surface chip for 8 and 10 min, in order to reach 6000 to 9000 response units (RU). The remaining activated carboxymethylated groups were blocked with a 7 min injection of 1 M ethanolamine pH 8.5 after which the surface chip was washed with 0.5% (w/v) sodium dodecyl sulphate and 50 mM glycine. HBS-N, which consists of 10 mM HEPES pH 7.4 and 150 mM NaCl, was used as the background buffer during immobilization. Exemplary compounds were prediluted in DMSO, diluted 1:50 in running buffer (20 mM Tris pH 7.4, 150 mM NaCl, 1 mM DTT, 5 mM MgCl2, 0.1 mM EGTA, 0.05% CHAPS) and injected at ten different concentrations using two-fold dilution series, from 100 μM to 0.2 μM. A DMSO solvent correction (1%-3%) was performed to account for variations in bulk signal and to achieve high-quality data. […]

T1 sequence (P28347 209-426): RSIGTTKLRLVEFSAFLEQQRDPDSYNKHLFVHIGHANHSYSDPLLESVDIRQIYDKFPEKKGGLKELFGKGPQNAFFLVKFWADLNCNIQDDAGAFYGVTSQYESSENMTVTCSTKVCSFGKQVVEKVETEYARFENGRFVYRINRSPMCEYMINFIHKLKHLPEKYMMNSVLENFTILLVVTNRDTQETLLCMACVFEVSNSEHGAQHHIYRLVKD

Kd: 3.01 µM
Structure (SMILES): Cn1cc2c3cc(C(=O)NCCOCCOCCOCCOCCOc4cccc5c4C(=O)N(C4CCC(=O)NC4=O)C5=O)ccc3n(-c3ccc(C(F)(F)F)cc3)c2n1 (stereo unspecified) [US20250032625, Compound 16]
